Changes are numbered by the printed parent chain. Where “and” joins values, the source holds several entries; their conditions need not be identical. Equal entries are not always repeated.
How the values were obtained:
[1] = biological target: T1, hOCT2 WT (Homo sapiens, UniProt O15244); assay: ASP+ uptake saturation experiments (microfluorimetry), hOCT2 WT; assay type: cell-based; conditions: hOCT2 WT in stably transfected HEK cells; specific uptake (minus uptake with 1 mM TPA^+); 37 °C, pH 7.4
T1 construct: expressed in transfected cells
T1 sequence (O15244 1-555 S270A): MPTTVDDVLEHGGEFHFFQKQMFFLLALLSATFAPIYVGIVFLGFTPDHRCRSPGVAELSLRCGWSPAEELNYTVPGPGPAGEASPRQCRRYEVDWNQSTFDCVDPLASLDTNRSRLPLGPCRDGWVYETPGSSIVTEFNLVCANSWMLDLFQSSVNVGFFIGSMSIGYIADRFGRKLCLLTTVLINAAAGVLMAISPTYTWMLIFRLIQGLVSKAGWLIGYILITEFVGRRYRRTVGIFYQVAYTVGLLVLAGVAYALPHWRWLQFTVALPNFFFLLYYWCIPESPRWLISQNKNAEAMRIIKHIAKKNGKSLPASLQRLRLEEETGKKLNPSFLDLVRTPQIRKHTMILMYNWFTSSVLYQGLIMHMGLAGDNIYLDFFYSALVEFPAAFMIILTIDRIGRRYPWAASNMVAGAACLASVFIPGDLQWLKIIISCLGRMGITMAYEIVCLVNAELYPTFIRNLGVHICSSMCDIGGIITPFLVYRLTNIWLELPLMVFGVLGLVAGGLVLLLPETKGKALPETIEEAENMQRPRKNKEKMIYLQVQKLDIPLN
Description: (§1) Measurement of hOCT2 function in HEK293 cells was performed using microfluorimetry with the fluorescent organic cation 4-(4-(dimethylamino)styryl)-N-methylpyridinium (ASP^+) as the substrate, as described previously in detail. As shown in previous work, this method allows a real-time measurement of the transporter function. The initial rate of ASP^+ uptake was calculated, as it reflects the activity of the transporter.
(§2) Briefly, ASP^+ cellular fluorescence was measured in a microtiterplate reader (Tecan infinite m200; Tecan, Crailsheim, Germany) at 37 °C using an excitation wavelength of 450 nm and an emission of 590 nm. Before fluorescence measurements, cells confluently grown in 96-well plates were washed in ringer-like solution (in mmol/L: 145 NaCl, 1.6 K2HPO4, 0.4 KH2PO4, 5 D-glucose, 1 MgCl2, 1.3 calcium gluconate, pH 7.4). Cell fluorescence was measured before and after ASP^+ addition to the cells. The kinetic characteristics of hOCT WT and hOCT2 Ala270Ser were investigated performing saturation experiments with increasing ASP^+ concentrations. Non-hOCT2-mediated ASP^+ uptake was evaluated in the presence of a huge amount (1 mM) of tetrapentylammonium (TPA^+) and subtracted from the total ASP^+ uptake in order to evaluate the ASP^+ uptake mediated specifically by hOCT2, as shown already in References. […]

[2] = biological target: T2, hOCT2 WT (Homo sapiens, UniProt O15244, S270A); assay: as above; assay type: cell-based; conditions: hOCT2 WT in stably transfected HEK cells; specific uptake
T2 construct: expressed in transfected cells
T2 sequence (O15244 1-555 S270A): T1 sequence (O15244 1-555 S270A)
Description: as §1, §2

[3] = biological target: T3, hOCT2 Ala270Ser (Homo sapiens, UniProt O15244); assay: ASP+ uptake saturation experiments (microfluorimetry), hOCT2 Ala270Ser; assay type: cell-based; conditions: hOCT2 Ala270Ser in stably transfected HEK cells
T3 construct: expressed in transfected cells
T3 sequence (O15244 1-555): T1 sequence (O15244 1-555 S270A) with A270S
Description: as §1, §2

[4] = biological target: T1, hOCT2 WT; assay: Inhibition of ASP+ uptake by competitors, hOCT2 WT; assay type: cell-based; conditions: 1 µM ASP^+; HEK293 hOCT2 WT cells; 37 °C, pH 7.4; read-out: hOCT2 WT IC50 (apparent affinity, inhibition of ASP^+ uptake)
[5] = biological target: T2, hOCT2 WT; assay: Inhibition of ASP+ uptake by competitors, hOCT2 WT; assay type: cell-based; conditions: 1 µM ASP^+, hOCT2 WT cells; for hOCT2 WT logIC50 ± SEM: log of IC50, in parenthesis in Table 1
[6] = biological target: T3, hOCT2 Ala270Ser; assay: Inhibition of ASP+ uptake by competitors, hOCT2 Ala270Ser; assay type: cell-based; conditions: 1 µM ASP^+; for IC50: HEK293 hOCT2 Ala270Ser cells, 37 °C, pH 7.4, read-out: hOCT2 Ala270Ser IC50 (apparent affinity, inhibition of ASP^+ uptake); for hOCT2 Ala270Ser logIC50 ± SEM: log of IC50, in parenthesis in Table 1
[7] = system: hOCT2 WT cells; assay: Cytoviability (MTT) assay, hOCT2 WT cells; assay type: cell-based, human
Description: (§3) The cytotoxicity of cisplatin was evaluated using a modified 3-(4,5-dimethylthiazol-2-yl)-2,5-diphenyltetrazoliumbromid (MTT) assay. The HEK293 cells grown for 24 hours in 96-well plates were incubated for 10 min at 37 °C with different concentrations of cisplatin (Calbiochem, Merck Chemicals GmbH, Darmstadt, Germany) dissolved in a ringer-like solution. The cisplatin solution was then removed, and the cells were grown in fresh medium for 48 hours. Afterwards, the cells were incubated with 10 µL MTT (Sigma, Steinheim, Germany) solution containing 5 mg/mL of the dye for three hours at 37 °C. Then, MTT was removed, and the cells were lysed with a solution containing 10% (w/v) sodium dodecyl sulfate and 40% (v/v) dimethylformamide. After 90 min, absorption was measured at 570 nm in a multiplate reader (Tecan infinite m200, Tecan, Tecan Group Ltd., Crailsheim, Germany).

[8] = system: hOCT2 Ala270Ser cells; assay: Cytoviability (MTT) assay, hOCT2 Ala270Ser cells; assay type: cell-based, human
Description: as §3

[9] = biological target: T1, hOCT2 WT; assay: Cellular platinum accumulation by ICP-MS, hOCT2 WT cells; assay type: cell-based; conditions: 2 min incubation with 100 µM cisplatin, mean ± SEM
Description: (§4) Intracellular cisplatin concentrations were determined using inductively coupled plasma mass spectrometry (ICP-MS), which provides information on the elemental concentration in samples [27, 28], as described before. To do this, cells were grown for five days on 6-well plates and incubated at 37 °C for 2 min with 2 mL of 100 µM cisplatin freshly prepared in a ringer-like solution. After incubation, cells were rapidly washed with ice-cold PBS and then hypotonically lysed using distilled water and sonication for 15 min. For the ICP-MS analysis, 100 µL of cell lysates together with 100 µL of rhodium standard (Rh 1000 µg/mL, Scpscience, Marktoberdorf, Germany) were mixed with 9.8 mL 2% HNO3. Standard platinum for ICP (Merck) was diluted in 2% HNO3, and linear regression was performed (r² = 0.998 and 0.999). Samples were analyzed using ICP-MS iCap QC, autosampler AccelaAS (Thermo Fisher Scientific, Bremen, Germany) and Qtegra ISDS software (Thermo Fisher Scientific). The protein content of lysed cells was determined by absorption measurements using PicoDrop Pico 1000 (PicoDrop, Saffron Walden, UK).

[10] = biological target: T3, hOCT2 Ala270Ser; assay: Cellular platinum accumulation by ICP-MS, hOCT2 Ala270Ser cells; assay type: cell-based; conditions: 2 min incubation with 100 µM cisplatin, mean ± SEM
Description: as §4

[11] = system: hOCT2 WT-mediated ASP^+ uptake; assay: Rapid regulation of ASP+ uptake, hOCT2 WT cells; assay type: cell-based, human; conditions: 1 µM ASP^+, compared to control
Description: (§5) Moreover, since it is known that the activity of hOCT2 can be regulated by several kinases, the effect of the Ala270Ser substitution on regulation by calmodulin and p56^lck tyrosine kinase of hOCT2 was investigated. The regulation by these two pathways is conserved along all the OCTs. To study the rapid regulation of hOCT2, cells were incubated for 10 min at 37 °C with calmidazolium (5 µM), a potent specific inhibitor of calmodulin [24], with aminogenistein (10 µM), a specific inhibitor of p56^lck tyrosine kinase, or with ringer-like solution as a control. Regulators were dissolved in ethanol (calmidazolium) or DMSO (aminogenistein) at a concentration that had no impact on ASP^+ transport. After incubation, fluorescence measurements were carried out with 1 µM ASP^+.

[12] = system: hOCT2 Ala270Ser-mediated ASP^+ uptake; assay: Rapid regulation of ASP+ uptake, hOCT2 Ala270Ser cells; assay type: cell-based, human; conditions: 1 µM ASP^+, compared to control
Description: as §5

[13] = 10 min incubation, then 48 hours in fresh medium
[14] = read-out: EC50 (concentration giving 50% of the toxic effect), MTT assay, 10 min incubation, then 48 hours in fresh medium
[15] = 10 min incubation with 10 µM aminogenistein
[16] = 10 min incubation with 5 µM calmidazolium

| Structure (SMILES) | IC50 [4] | hOCT2 WT logIC50 ± SEM [5] | IC50 [6] | hOCT2 Ala270Ser logIC50 ± SEM ([6]; hOCT2 Ala270Ser cells) | other results |
| --- | --- | --- | --- | --- | --- |
| CN(C)c1ccc(C=Cc2cc[n+](C)cc2)cc1 [ASP^+, 4-(4-(dimethylamino)styryl)-N-methylpyridinium] | – | – | – | – | Km [1]: 4 ± 1 µM; Vmax of ASP^+ uptake [2]: 516 ± 23 arbitrary units/µg protein s^2; Vmax of ASP^+ uptake ([3]; specific uptake): 484 ± 50 arbitrary units/µg protein s^2; Km ([3]; specific uptake (minus uptake with 1 mM TPA^+), 37 °C, pH 7.4): 4.9 ± 1.6 µM |
| CN/C(=N/CCSCc1nc[nH]c1C)NC#N [Cimetidine, cimetidine] | 23 µM | −4.64 ± 0.12 | 40 µM | −4.40 ± 0.19 | – |
| N.N.[Cl][Pt][Cl] [Cisplatin, cisplatin] | 16 µM | −4.80 ± 0.10 | 9 µM | −5.04 ± 0.11 | logEC50 ± SEM, MTT assay [7, 13]: −4.89 ± 0.11; EC50 [7, 14]: 13 µM; logEC50 ± SEM, MTT assay [8, 13]: −4.48 ± 0.05; EC50 [8, 14]: 33 µM; Cellular platinum concentration [9]: 264 ± 10 µg Pt/g protein; Cellular platinum concentration [10]: 221 ± 10 µg Pt/g protein |
| CN1CC(=O)NC1=N [Creatinine, creatinine] | 18600 µM | −1.73 ± 0.04 | 9800 µM | −2.01 ± 0.06 | – |
| NCCc1c[nH]cn1 [Histamine, histamine] | 4600 µM | −2.33 ± 0.06 | 4000 µM | −2.40 ± 0.07 | – |
| CN(C)CCCN1c2ccccc2CCc2ccccc21 [Imipramine, imipramine] | – | −2.71 ± 0.06 | – | – | – |
| CN(C)C(=N)N=C(N)N [Metformin, metformin] | 900 µM and 868 µM | −3.06 ± 0.05 | 800 µM and 848 µM | −3.07 ± 0.05 | – |
| Cc1ncc(C[n+]2csc(CCO)c2C)c(N)n1 [Thiamin, thiamine] | 87 µM | −4.06 ± 0.05 | 106 µM | −3.98 ± 0.06 | – |
| N[C@@H](Cc1c[nH]c2ccccc12)C(=O)O [Tryptophan, tryptophan] | ~5400 µM | −2.27 ± 0.28 | ~2400 µM | −2.61 ± 0.28 | Inhibition of ASP^+ uptake (in words) [5]: inhibit a small part of the ASP^+ uptake only at very high concentrations; Inhibition of ASP^+ uptake (in words) ([6]; hOCT2 Ala270Ser cells): inhibit a small part of the ASP^+ uptake only at very high concentrations |
| Nc1ccc(-c2cc(=O)c3cc(O)ccc3o2)cc1 [aminogenistein] | – | – | – | – | Effect on hOCT2 WT-mediated ASP^+ uptake (inhibition of p56^lck tyrosine kinase) [11, 15]: strong significant inhibition; Effect on hOCT2 Ala270Ser-mediated ASP^+ uptake (inhibition of p56^lck tyrosine kinase) [12, 15]: strong significant inhibition |
| Clc1ccc(C(c2ccc(Cl)cc2)n2cc[n+](CC(OCc3ccc(Cl)cc3Cl)c3ccc(Cl)cc3Cl)c2)cc1 (stereo not drawn) [calmidazolium] | – | – | – | – | Effect on hOCT2 WT-mediated ASP^+ uptake (inhibition of calmodulin) [11, 16]: strong significant inhibition; Effect on hOCT2 Ala270Ser-mediated ASP^+ uptake (inhibition of calmodulin) [12, 16]: strong significant inhibition |

Source: publication PMC6843571, “Effects of Single Nucleotide Polymorphism Ala270Ser (rs316019) on the Function and Regulation of hOCT2” (Biomolecules, 2019)
